Data on one molecule can be found in patent US9861590B2, “Self-supporting films for delivery of therapeutic agents” (priority 2010, dated 2018).

The data set can be described thus: Saturation and payload limits for dip coating bupivacaine HCl solution on polyester mesh (FIG. 8). Format: physicochemical. To be noted: Parietex monofilament polyester mesh without polymer film. The text has this:
Further, it is believed that spraying films on a medical device (e.g., mesh) compared to other conventional methods, such as dip coating, provides increased loading of the therapeutic agent.
More particularly FIG. 8 illustrates the loading limits for a polyester mesh (Parietex™ monofilament mesh) without a polymer film.

Where a name gives a salt, the structure may show the parent alone.

In the case of `CCCCN1CCCCC1C(=O)Nc1c(C)cccc1C` (centres unmarked) [bupivacaine HCl, bupivacaine hydrochloride], the “saturation and payload limits for dip coating solution” value was determined as 12 % w/v (solution in MeOH) and 5 % w/v (solution in water).
